The text below walks through data of patent US11440903B2, “Salt form and crystal form of compound as FGFR4 inhibitor and preparation method thereof” (GUANGDONG ZHONGSHENG PHARMACEUTICAL CO., LTD, priority 2017, dated 2022).

Type in all cases: physicochemical
The nature of data set [1]: Solubility test in biological media (FaSSIF, FeSSIF, SGF) and water, 37° C. Particulars: SGF and fasting or satiety state simulated intestinal fluid. As for the experimental part:
Step 1: Preparation of Control Solutions (0.2 mg/mL, calculated by free base)
2 mg the crystal form B of the compound represented by formula (I) (or 2.4 mg the crystal form E of the compound represented by formula (II)) as a control was precisely weighed and placed into a 40 mL glass vial, and a diluent (10 mL) was precisely added. The reaction solution was subjected to ultrasonic treatment for 20 min to sufficiently dissolve, then cooled to room temperature and shaked well. Two control solutions (STD #1, STD #2) were formulated in accordance with this method.
Step 2: Preparation of Linear Solutions
The control solution STD #1 of the crystal form B of the compound represented by formula (I) was 1×, 10×, 100×, 1000× and 2000× (free base LOQ) diluted, and designated as the linear solutions L1, L2, L3, L4 and L5; the control solution STD #1 of the crystal form E of the compound represented by formula (II) was 1×, 10×, 100× and 1000× (methanesulfonate LOQ) diluted, and designated as the linear solutions L1, L2, L3, L4.
Step 3: Solubility Test of the crystal form B of the compound represented by formula (I), the crystal form G of the compound represented by formula (III) and the crystal form E of the compound represented by formula (II) in biological media and water
4 samples (about 4 mg) of each of the crystal form B of the compound represented by formula (I), the crystal form E of the compound represented by formula (II), and the crystal form G of the compound represented by formula (III) were added into 12 glass vials (4 mL), respectively, and then 2 mL different biological media (FaSSIF, FeSSIF, SGF) and water were added into each compound respectively, then mixed homogeneously to form a suspension. The suspension was detected for its initial pH value. A magnet was added into the suspension, and placed on a magnetic stirring heater for stirring (at a temperature of 37° C., in dark). After stirring for 24 h, a sample was taken. The taken sample was quickly centrifuged, and the residual solid was detected by XRPD. The supernatant was detected for its pH value and diluted with a diluent into appropriate multiple, then measured with HPLC for its concentration.
FaSSIF: 1. 0.042 g sodium hydroxide, 0.3438 g sodium dihydrogen phosphate and 0.6186 g sodium chloride were weighed, added into 90 mL purified water, and homogeneously mixed, then, the mixture was adjusted with 1 N hydrochloric acid or 1 N sodium hydroxide to pH=6.5, and diluted into a constant volume of 100 mL with purified water; 2. 50 mL of the buffer described above was taken, and 0.224 g commercially available powder (Biorelevant.com) of FaSSIF/FeSSIF/FaSSGF was added thereto, the mixture was stirred to dissolve, and diluted with purified water to a constant volume of 100 mL.
FeSSIF: 1. 0.404 g sodium hydroxide, 0.865 g glacial acetic acid, and 1.1874 g sodium chloride were weighed, added into 90 mL purified water, and homogeneously mixed, then, the mixture was adjusted with 1 N hydrochloric acid or 1 N sodium hydroxide to pH=5.0, and diluted with purified water to a constant volume of 100 mL, 2. 50 mL of the buffer described above was taken, and 1.12 g commercially available powder (Biorelevant.com) of FaSSIF/FeSSIF/FaSSGF was added thereto, the mixture was stirred to dissolve, and diluted with purified water to a constant volume of 100 mL.
FaSSGF (SGF): 1. 0.2 g sodium chloride was weighed, added into 90 mL purified water, and mixed homogeneously, the mixture was adjusted with 1 N hydrochloric acid to pH=1.8, and diluted with purified water to a constant volume of 100 mL, and stood at room temperature.

A short description of data set [2]: Stability of the crystal form on stirring as suspension in solvent (40° C., 2 days). Particulars: stirring in ethanol-water (1:1) at 40° C. for 2 days. Here is the method: 30 mg of the compound represented by formula (I) was weighed and added into a glass flask, 400 μL acetonitrile-water (1:1) was added to form a suspension. A sample of the suspension was placed on a magnetic stirrer (40° C.) for a dark stirring experiment. The sample of the suspension was centrifuged after stirring at 40° C. for 2 days, and then the residual sample was dried in a vacuum drying oven (30° C.) overnight to give a crystal form A of the compound represented by formula (I). The XRPD pattern of the crystal form A of the compound represented by formula (I) is shown in FIG. 1, the DSC pattern is shown in FIG. 2, and the TGA pattern is shown in FIG. 3.
30 mg of the compound represented by formula (I) was weighed and added into a glass flask, and 400 μL ethyl acetate was added to form a suspension. A sample of the suspension was placed on a magnetic stirrer (40° C.) for dark stirring experiment. The sample of the suspension was centrifuged after stirring at 40° C. for 2 days, and then the residual sample was dried in a vacuum drying oven (30° C.) overnight. The crystal form was detected by XRPD to give a crystal form A of the compound represented by formula (I).
30 mg of the compound represented by formula (I) was weighed and added into a glass flask, and 400 μL methanol was added to form a suspension. A sample of the suspension was placed on a magnetic stirrer (40° C.) for dark stirring experiment. The sample of the suspension was centrifuged after stirring at 40° C. for 2 days, and then the residual sample was dried in a vacuum drying oven (30° C.) overnight to give a crystal form B of the compound represented by formula (I). The XRPD pattern of the crystal form B of the compound represented by formula (I) is shown in FIG. 4, the DSC pattern is shown in FIG. 5, and the TGA pattern is shown in FIG. 6.
50 mg of the compound represented by formula (I) was weighed and added into a 1.5 mL liquid vial, and 200 μL methanol was added thereto, the obtained mixture was homogeneously mixed under ultrasound. The dissolved sample was quickly centrifuged, and the supernatant was placed in a centrifuge tube, the mouth of the tube was packed with a pierced aluminum foil, and then the tube was placed in a fume cupboard for volatilization; the sample of the suspension was placed on a magnetic stirring heater (40° C.) for stirring (in dark), and quickly centrifuged after 2 days. The resultant solid was collected and dried at 30° C. in a vacuum drying oven overnight to give the crystal form C of the compound represented by formula (I). The XRPD pattern of the crystal form C of the compound represented by formula (I) is shown in FIG. 7, the DSC pattern is shown in FIG. 8, and the TGA pattern is shown in FIG. 9.
50 mg of the compound represented by formula (I) was weighed and added into a 1.5 mL liquid vial, and 200 μL ethanol was added thereto, and the obtained mixture was homogeneously mixed under ultrasound. The dissolved sample was quickly centrifuged, the supernatant was placed into a centrifuge tube, and the mouth of the tube was packed with a pierced aluminum foil, and placed in a fume cupboard for volatilization; the sample of the suspension was placed on a magnetic stirring heater (40° C.) for stirring (in dark), and quickly centrifuged after 2 days. The solid obtained as above was collected and dried at 30° C. in a vacuum drying oven overnight to give a crystal form D of the compound represented by formula (I). The XRPD pattern of the crystal form D of the compound represented by formula (I) is shown in FIG. 10, the DSC pattern is shown in FIG. 11, and the TGA pattern is shown in FIG. 12.
35 mg of the compound represented by formula (II) was weighed and added into a 1.5 mL liquid vial, and 400 μL methanol was added thereto, and the obtained mixture was homogeneously mixed under ultrasound. […]

Data set [3] is described as follows: Solid stability test of the crystal forms (influence factors and acceleration tests; appearance, XRPD, HPLC content and impurities).
Text: A sample of the crystal form A was placed on the bottom of a glass sample bottle, and spread to a thin layer. The sample stored under high temperature, high humidity, and acceleration conditions was placed in a bottle of which the mouth was packed with a pierced aluminum foil to ensure the sample to be sufficiently exposed to ambient air; the sample stored under light radiation conditions was placed at room temperature in a standing bottle of which the mouth was open, the sample was exposed to a light resource, and sampled for detection after being radiated by sufficient energy. Samples were taken and analyzed at various time points, and the test results were compared with the initial test results of 0 day, the inspection items included appearance, content and impurities, and the test results are shown in Table 9.
A sample of the crystal form B (10 mg) was placed on the bottom of a glass sample bottle, and spread to a thin layer. The sample stored under high temperature, high humidity, and acceleration conditions were placed in a bottle of which the mouth was packed with a pierced aluminum foil to ensure the sample to be sufficiently exposed to ambient air; the sample stored under light radiation conditions was placed at room temperature in a standing bottle of which the mouth was open, the sample was exposed to a light resource, and sampled for detection after being radiated by sufficient energy, the control sample stored in dark (open, the whole sample bottle was sealed with aluminum foil to keep the content in dark) and the sample stored under light radiation conditions were placed together to exclude environmental influence on the samples. Samples were taken and analyzed at various time points, and the test results were compared with the initial test results of 0 day, the inspection items included appearance, crystal form, content and impurities, the test results are shown in Table 10.
(§1) A sample of the crystal form C was taken and placed on the bottom of a glass sample bottle, and spread to a thin layer. The sample stored under high temperature, high humidity, and acceleration conditions was placed in a bottle of which the mouth was packed with a pierced aluminum foil to ensure the sample to be sufficiently exposed to ambient air; the sample stored under light radiation conditions was placed at room temperature in a standing bottle of which the mouth was open, the sample was exposed to a light resource, and sampled for detection after being radiated by sufficient energy. Samples were taken and analyzed at various time points, and the test results were compared with the initial test results of 0 day.
as §1, with “D” for “C”
A sample of the crystal form E (10 mg) was taken and placed on the bottom of a glass sample bottle, and spread to a thin layer. […]

Setting [4] is: Acceleration test (40° C./relative humidity of 75%, open), 10 days.
Setting [5] is: High humidity (room temperature/relative humidity of 92.5%, open), 10 days.
Where [6] appears, read: High temperature (60° C., open), 10 days.
Setting [7] is: Light radiation (total illumination: 1.2 × 10^6 Lux·hr), 10 days.
The mark [8] stands for this setting: conclusion of influence factors and acceleration tests.

Consider `C=CC(=O)N[C@H]1COC[C@H]1Nc1ncc(/C=C(\F)c2c(Cl)c(OC)cc(OC)c2Cl)cn1.CS(=O)(=O)O` [compound represented by formula (II)], for which the “solubility in simulated gastric fluid (SGF) and simulated intestinal fluid (FaSSIF), in words” value in data set [1] was “relatively good solubility”.

`C=CC(=O)N[C@H]1COC[C@H]1Nc1ncc(/C=C(\F)c2c(Cl)c(OC)cc(OC)c2Cl)cn1.CS(=O)(=O)O` [Crystal Form F]: the “stability in the ethanol-water solution” value in data set [2] is on record as “substantially high stability”. The Appearance result in data set [3] (0 day (initial)) is “White”; in data set [3] (Acceleration test (40° C./relative humidity of 75%, open), 5 days), “White”; in data set [3] (setting [4]), “White”; in data set [3] (High humidity (room temperature/relative humidity of 92.5%, open), 5 days), “White”; in data set [3] (setting [5]), “White”; in data set [3] (High temperature (60° C., open), 5 days), “White”. The Appearance entry in data set [3] (setting [6]) is on record as “White”; in data set [3] (Light radiation (total illumination: 1.2 × 10^6 Lux·hr), 5 days), “White”; in data set [3] (setting [7]) it was “White”. In addition, the “Content (%)” value came to 99.26% in data set [3] (0 day (initial)); 99.22% in data set [3] (setting [4]); 99.24% in data set [3] (setting [5]); 99.22% in data set [3] (setting [6]); 99.30% in data set [3] (setting [7]). Moreover, the “Crystal Form (XRPD)” value in data set [3] (0 day (initial)), in data set [3] (setting [4]), in data set [3] (setting [5]), in data set [3] (setting [6]) and in data set [3] (setting [7]) was “form F” each time. Further, the “Total Impurities (%)” value in data set [3] (0 day (initial)) was 0.72%; in data set [3] (setting [4]), 0.71%; in data set [3] (setting [5]), 0.73%; in data set [3] (setting [6]), 0.79%; in data set [3] (setting [7]), 0.73%. For the same compound, in data set [3] (setting [8]), the “photostability (stability under light radiation), conclusion in words” value is recorded as “good”. For the same compound, the “stability under acceleration conditions, conclusion in words” value in data set [3] (setting [8]) was “good”. The “stability under high humidity conditions, conclusion in words” value in data set [3] (setting [8]) is “good”. For the same compound, in data set [3] (setting [8]), the “thermal stability (high temperature), conclusion in words” value was “slight impurity generation”.

With `C=CC(=O)N[C@H]1COC[C@H]1Nc1ncc(/C=C(\F)c2c(Cl)c(OC)cc(OC)c2Cl)cn1.O=S(=O)(O)O` [compound represented by formula (III)], the “solubility in simulated gastric fluid (SGF) and simulated intestinal fluid (FaSSIF), in words” value in data set [1] is “relatively good solubility”.
